The values below come from ChEMBL document CHEMBL1201862, “PubChem BioAssay data set” (2004).

The target of assay [1] is T1, Caspase-3 (Homo sapiens, UniProt P42574).
T1 sequence (P42574 whole entry): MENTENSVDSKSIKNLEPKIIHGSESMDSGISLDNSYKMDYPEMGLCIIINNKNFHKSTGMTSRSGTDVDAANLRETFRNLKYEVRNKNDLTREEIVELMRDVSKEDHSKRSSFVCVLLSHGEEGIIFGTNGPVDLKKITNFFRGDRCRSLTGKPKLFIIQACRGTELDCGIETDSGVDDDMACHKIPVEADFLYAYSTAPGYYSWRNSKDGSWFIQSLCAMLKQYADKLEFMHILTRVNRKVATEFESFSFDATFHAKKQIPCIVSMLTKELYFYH
Kind of assay: inhibition of recombinant caspase-3 activity – biochemical, luminescence, set 2, selectivity assay for SENP protease inhibitor project, SAR follow-up (AID 588599). The class given is functional.

The target in assay [2] is T2, Sentrin-specific protease 8 (Homo sapiens, UniProt Q96LD8).
T2 sequence (Q96LD8 whole entry): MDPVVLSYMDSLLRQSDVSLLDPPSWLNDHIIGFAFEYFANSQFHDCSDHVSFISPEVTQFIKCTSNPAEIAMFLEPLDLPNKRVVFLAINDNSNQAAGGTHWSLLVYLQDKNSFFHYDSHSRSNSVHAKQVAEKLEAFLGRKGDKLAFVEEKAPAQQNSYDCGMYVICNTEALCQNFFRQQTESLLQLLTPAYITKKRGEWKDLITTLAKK
Kind of assay: inhibition of sentrin protease 8 – biochemical, luminescence, set 2, SAR follow-up (AID 588601). The class given is functional.

The target of assay [3] is T3, Sentrin-specific protease 7 (Homo sapiens, UniProt Q9BQF6).
T3 sequence (Q9BQF6 whole entry): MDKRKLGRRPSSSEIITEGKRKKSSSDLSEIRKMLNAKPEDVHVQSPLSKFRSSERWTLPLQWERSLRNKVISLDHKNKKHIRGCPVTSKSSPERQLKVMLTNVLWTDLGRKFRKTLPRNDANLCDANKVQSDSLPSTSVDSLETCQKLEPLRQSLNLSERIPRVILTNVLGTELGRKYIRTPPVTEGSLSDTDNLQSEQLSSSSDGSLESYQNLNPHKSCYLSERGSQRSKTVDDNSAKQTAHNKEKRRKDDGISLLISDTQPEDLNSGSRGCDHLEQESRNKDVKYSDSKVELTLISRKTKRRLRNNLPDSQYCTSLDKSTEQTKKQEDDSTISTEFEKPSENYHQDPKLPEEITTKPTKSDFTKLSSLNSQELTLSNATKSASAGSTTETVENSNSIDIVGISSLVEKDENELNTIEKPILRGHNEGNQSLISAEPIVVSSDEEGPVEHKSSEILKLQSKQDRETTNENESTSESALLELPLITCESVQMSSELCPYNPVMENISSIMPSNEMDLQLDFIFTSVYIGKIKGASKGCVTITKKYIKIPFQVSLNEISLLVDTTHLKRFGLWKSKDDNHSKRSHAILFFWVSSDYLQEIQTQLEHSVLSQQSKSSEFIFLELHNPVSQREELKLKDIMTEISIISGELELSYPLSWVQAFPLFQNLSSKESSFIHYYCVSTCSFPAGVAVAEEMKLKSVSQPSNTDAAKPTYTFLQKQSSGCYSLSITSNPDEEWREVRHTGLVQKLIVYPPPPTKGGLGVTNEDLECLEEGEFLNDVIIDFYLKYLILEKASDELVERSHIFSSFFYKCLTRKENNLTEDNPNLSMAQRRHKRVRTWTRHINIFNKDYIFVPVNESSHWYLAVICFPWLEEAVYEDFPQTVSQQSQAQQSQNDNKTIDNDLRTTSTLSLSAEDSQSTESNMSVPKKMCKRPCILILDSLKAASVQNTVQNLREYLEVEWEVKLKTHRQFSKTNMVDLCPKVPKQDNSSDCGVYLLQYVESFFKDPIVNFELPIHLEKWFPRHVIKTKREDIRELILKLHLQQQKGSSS
Nature of the assay: inhibition of human SENP7 cleavage activity – biochemical, luminescence, set 2, SAR follow-up (AID 588600). The assay is classed as functional.

Assay [4] has as its target T4, Sentrin-specific protease 6 (Homo sapiens, UniProt Q9GZR1).
T4 sequence (Q9GZR1 whole entry): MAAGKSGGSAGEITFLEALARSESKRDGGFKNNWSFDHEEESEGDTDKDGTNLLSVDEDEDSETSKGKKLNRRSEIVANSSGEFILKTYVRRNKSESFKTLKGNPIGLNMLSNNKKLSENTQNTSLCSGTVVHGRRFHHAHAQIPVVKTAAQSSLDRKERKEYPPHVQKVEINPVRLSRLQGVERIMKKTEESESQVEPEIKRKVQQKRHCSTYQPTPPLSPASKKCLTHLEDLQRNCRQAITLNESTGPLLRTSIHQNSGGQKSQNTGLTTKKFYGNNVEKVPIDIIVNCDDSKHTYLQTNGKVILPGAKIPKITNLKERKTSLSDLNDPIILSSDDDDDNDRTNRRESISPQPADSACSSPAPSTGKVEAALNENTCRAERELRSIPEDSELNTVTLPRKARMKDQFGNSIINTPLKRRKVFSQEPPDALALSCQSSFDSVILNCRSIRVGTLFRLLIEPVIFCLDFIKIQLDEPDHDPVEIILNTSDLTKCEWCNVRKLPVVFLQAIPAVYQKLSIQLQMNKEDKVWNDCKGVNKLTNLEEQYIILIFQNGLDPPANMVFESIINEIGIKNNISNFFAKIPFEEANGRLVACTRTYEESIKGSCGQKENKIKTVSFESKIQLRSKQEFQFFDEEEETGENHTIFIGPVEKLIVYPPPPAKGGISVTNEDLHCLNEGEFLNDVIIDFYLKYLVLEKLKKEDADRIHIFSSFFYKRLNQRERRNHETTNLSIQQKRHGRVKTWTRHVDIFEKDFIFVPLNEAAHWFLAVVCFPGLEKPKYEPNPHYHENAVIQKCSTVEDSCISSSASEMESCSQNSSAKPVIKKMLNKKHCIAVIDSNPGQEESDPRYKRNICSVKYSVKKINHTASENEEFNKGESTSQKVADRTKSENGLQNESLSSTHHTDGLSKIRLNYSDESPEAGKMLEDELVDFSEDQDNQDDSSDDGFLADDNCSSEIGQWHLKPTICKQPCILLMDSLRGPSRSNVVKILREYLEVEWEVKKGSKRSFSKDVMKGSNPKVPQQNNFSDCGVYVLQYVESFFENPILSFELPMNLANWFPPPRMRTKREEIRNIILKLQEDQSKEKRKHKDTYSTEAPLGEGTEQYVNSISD
Nature of the assay: inhibition of human SENP6 catalytic domain – biochemical, luminescence, set 2, SAR follow-up (AID 588598). The class given is functional.

Assay [5] deals with T5, Phospholipase D1 (Homo sapiens, UniProt Q13393).
T5 sequence (Q13393 whole entry): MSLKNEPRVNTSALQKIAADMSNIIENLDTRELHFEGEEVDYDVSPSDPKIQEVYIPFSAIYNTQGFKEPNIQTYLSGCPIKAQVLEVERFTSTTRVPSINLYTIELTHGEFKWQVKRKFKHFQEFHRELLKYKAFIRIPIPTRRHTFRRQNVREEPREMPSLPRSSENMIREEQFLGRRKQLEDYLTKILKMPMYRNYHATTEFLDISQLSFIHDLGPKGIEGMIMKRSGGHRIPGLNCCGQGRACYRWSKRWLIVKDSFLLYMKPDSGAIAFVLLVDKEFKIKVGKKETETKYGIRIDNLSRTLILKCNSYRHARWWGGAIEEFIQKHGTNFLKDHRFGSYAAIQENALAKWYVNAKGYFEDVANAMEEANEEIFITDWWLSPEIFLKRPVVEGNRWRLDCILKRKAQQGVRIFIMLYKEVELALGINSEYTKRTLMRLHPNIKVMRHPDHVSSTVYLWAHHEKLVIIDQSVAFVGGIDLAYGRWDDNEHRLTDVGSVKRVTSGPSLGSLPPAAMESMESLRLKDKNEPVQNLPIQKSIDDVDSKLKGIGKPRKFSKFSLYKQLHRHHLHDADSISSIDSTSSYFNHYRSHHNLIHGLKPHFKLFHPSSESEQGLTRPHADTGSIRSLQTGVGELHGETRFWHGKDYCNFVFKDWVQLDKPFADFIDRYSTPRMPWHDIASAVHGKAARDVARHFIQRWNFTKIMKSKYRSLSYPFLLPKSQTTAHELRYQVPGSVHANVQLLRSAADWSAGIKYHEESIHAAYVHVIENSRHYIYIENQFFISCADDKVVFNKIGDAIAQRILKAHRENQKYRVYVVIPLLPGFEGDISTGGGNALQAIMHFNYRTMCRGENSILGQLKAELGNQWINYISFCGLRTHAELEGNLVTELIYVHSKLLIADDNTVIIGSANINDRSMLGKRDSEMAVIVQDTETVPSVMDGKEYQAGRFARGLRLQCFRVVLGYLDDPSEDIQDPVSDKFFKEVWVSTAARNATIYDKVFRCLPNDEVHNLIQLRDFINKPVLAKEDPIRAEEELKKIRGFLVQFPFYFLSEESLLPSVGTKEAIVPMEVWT
Nature of the assay: cellular phospholipase D1 inhibition IC50 – cell-based, dose response (AID 602151).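 Further: cellular PLD1 assay in Calu-1 cells stimulated with PMA.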 The class given is functional.

The target in assay [6] is Phospholipase D2 (Homo sapiens, UniProt O14939). Kind of assay: cellular phospholipase D2 inhibition IC50 – cell-based, dose response (AID 602147).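 Further: cellular assay in HEK293 cells overexpressing GFP-tagged PLD2.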 The class given is functional.
Assay [7] concerns the target Melanin-concentrating hormone receptor 1 (Homo sapiens, UniProt Q99705). Kind of assay: Late-stage fluorescence-based counterscreen for antagonists of the G-protein coupled receptor 7 (GPR7): cell-based dose response assay to identify antagonists of the melanin-concentrating hormone receptor 1 (MCHR1) Set 6. The class given is functional. Background: Counterscreens check selectivity or assay interference.

Assay [8] deals with T6, High affinity choline transporter 1 (Homo sapiens, UniProt Q9GZV3).
T6 sequence (Q9GZV3 whole entry): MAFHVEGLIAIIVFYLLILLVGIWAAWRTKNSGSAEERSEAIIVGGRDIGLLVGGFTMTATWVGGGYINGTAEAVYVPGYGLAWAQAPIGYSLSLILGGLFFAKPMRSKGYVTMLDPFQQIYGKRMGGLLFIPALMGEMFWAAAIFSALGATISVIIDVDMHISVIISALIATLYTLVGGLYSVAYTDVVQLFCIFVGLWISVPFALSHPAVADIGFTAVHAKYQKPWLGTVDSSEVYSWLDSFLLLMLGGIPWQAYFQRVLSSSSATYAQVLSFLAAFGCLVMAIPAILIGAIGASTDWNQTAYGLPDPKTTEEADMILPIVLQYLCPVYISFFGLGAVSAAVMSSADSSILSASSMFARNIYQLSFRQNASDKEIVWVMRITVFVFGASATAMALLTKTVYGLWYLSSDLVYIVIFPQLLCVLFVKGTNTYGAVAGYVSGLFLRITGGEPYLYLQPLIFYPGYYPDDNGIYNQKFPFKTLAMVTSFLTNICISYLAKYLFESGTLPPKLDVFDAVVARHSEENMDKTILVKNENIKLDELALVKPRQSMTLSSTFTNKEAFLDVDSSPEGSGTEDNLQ
Kind of assay: human choline transporter potentiators, potency – cell-based, 10-point CRC, membrane potential dye, dose response (AID 602376). The class given is functional.

Assay [9] concerns the target T2, Sentrin-specific protease 8. Kind of assay: inhibition of human SENP8 cleavage activity – biochemical, luminescence, SAR follow-up (AID 504501). The assay is classed as functional.
Assay [10] deals with T1, Caspase-3. Kind of assay: SAR Analysis of small molecule inhibitors of Sentrin-specific proteases (SENPs) using a Caspase-3 Selectivity assay. [Related pubchem assays (depositor defined):AID2540, AID2599, AID434973, AID489001]. The assay is classed as functional.
For assay [11], the target named is T4, Sentrin-specific protease 6. Nature of the assay: SAR Analysis of small molecule inhibitors of Sentrin-specific protease 6 (SENP6) using a Luminescent assay. [Related pubchem assays (depositor defined):AID2582, AID2599]. The class given is functional.
Assay [12] concerns the target T3, Sentrin-specific protease 7. Kind of assay: inhibition of human SENP7 cleavage activity – biochemical, luminescence, SAR follow-up (AID 504497). The assay is classed as functional.
Assay [13] in a line: Trypanosoma cruzi growth suppression in host cells – NIH3T3 host cells, beta-gal luminescence, confirmation (AID 2044).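 Further: intracellular parasites grown in NIH/3T3 mouse fibroblasts as host cells; luminescent beta-galactosidase reporter signal from transgenic T. cruzi replicating inside host cells; inhibitors lower the luminescence signal.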 The class given is functional, cell-based.
The nature of assay [14]: NIH3T3 cell viability loss – ATP luminescence, mouse fibroblasts, counter-screen, dose response (AID 2010).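 Further: cells exposed to compound for about 90 hours before reading.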 The class given is functional, cell-based.
Assay [15] in a line: cells.

The source made the active and inactive calls. For most assays here, no stated cut-off is given here; in the data, actives have a measured IC50 and inactives only a lower limit. Some results are limits rather than exact numbers.

Phospholipase D2, sequence (O14939 whole entry): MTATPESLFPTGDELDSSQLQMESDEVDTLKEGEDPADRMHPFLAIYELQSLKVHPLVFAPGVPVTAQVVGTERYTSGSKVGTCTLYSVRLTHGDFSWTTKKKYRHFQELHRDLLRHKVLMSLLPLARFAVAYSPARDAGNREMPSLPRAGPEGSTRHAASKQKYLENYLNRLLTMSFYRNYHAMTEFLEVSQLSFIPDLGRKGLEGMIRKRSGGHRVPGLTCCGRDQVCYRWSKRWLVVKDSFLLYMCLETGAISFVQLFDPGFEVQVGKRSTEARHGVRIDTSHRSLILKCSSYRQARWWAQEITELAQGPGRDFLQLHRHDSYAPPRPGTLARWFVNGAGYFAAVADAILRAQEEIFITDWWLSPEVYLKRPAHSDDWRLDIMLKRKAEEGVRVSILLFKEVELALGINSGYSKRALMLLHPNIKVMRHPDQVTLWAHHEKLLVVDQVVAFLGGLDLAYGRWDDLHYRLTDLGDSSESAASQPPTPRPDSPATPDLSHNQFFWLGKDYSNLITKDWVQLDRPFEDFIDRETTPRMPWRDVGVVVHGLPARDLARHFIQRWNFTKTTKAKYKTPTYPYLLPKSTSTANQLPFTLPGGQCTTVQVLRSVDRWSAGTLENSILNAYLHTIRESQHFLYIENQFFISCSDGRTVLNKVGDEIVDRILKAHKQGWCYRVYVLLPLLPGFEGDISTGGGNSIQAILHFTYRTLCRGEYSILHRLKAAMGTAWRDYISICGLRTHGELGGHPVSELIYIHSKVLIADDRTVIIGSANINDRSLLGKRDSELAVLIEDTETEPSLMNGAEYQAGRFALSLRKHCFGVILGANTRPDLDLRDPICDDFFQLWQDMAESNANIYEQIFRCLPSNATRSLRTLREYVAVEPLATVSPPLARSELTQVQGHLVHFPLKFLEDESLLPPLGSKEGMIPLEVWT
Melanin-concentrating hormone receptor 1, sequence (Q99705 whole entry): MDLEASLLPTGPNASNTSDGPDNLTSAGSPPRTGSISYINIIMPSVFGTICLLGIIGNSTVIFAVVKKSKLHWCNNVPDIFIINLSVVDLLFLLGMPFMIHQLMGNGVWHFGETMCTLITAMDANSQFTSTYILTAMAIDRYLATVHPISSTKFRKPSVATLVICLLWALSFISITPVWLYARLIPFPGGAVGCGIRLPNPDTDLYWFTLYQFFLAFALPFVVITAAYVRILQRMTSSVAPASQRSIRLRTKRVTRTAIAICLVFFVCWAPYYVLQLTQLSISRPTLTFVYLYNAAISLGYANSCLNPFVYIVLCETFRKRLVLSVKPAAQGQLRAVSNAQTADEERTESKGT

Consider `COc1cc(/C=C(/C#N)c2nc(-c3ccc(C)cc3)no2)ccc1OCc1cccc(C(F)(F)F)c1`, for which the IC50 in [1], in assay [2], in [3] and in assay [4] was > 99 µM (inactive) each time.

As for `C[C@@H](CN1CCC(n2c(=O)[nH]c3ccccc32)CC1)NC(=O)c1cc2ccccc2[nH]1`, the IC50 is 0.001 µM (active) in [5] and 0.066 µM (active) in assay [6].

For the compound `C[C@@H](CN1CCC(n2c(=O)[nH]c3ccccc32)CC1)NC(=O)C1C[C@H]1c1ccccc1` (stereo partly specified), the IC50 in [5] is 0.088 µM (active); in [6], 14.5 µM (active).

Turning to `COc1ccc(Oc2c(Cl)cnn(CC(=O)N3c4ccccc4CC3C)c2=O)cc1` (stereo unspecified), the IC50 in [7] is 0.781 µM (active).

Take `CCCCc1n(C)c2ccccc2[n+]1CC(=O)c1ccc(Cl)cc1`: the EC50 in [8] is 9.58 µM (active).

For the compound `CCOc1ccc2nc(N(Cc3cccnc3)C(=O)c3ccc(Cl)s3)sc2c1`, the IC50 in assay [9], in assay [10], in assay [11] and in assay [12] was > 99 µM (inactive) in each case.

`Fc1ccc(-c2nc(/C=C/c3ccccc3)no2)cc1`: the IC50 in [9] is 33 µM (active); in assay [1], 33.8 µM (active); in assay [2] it was 11.7 µM (active); in assay [10], 37 µM (active); in [3] it was 11.1 µM (active); in assay [11], 32 µM (active). In addition, the values for the IC50 in assay [4] and in [12] were 11.7 µM (active) and 14 µM (active), respectively.

For `CCN(CC)S(=O)(=O)c1cnccc1N1CCN(c2cccc(Cl)c2)CC1`, the EC50 in assay [13] is < 0.1 µM (active); in [14], > 60 µM (not active); in [8] it was 24.7 µM (active); in assay [15], 0.268 µM (active).

Usually IC50 stands for the concentration needed to halve the response being measured. By EC50 is commonly meant the concentration that produces a half-maximal response.
